Assay results from patent US12285428B2 (IMBRIA PHARMACEUTICALS, INC., priority 2021, dated 2025).

How the values were obtained:
healthy subjects = assay: FIH study, single-dose MR part: safety and tolerability; assay type: in vivo, human; conditions: for ALT, Subject 505: normal range 0-68 IU/L
Description: The subjects received a single oral dose of 1 of 4 MR formulations of IMB-1018972 under fasted conditions (an overnight fast of at least 10 hours) on Days 1, 4, 7, and 10 in a fixed order that was the same for all subjects. The MR formulation of IMB-1018972 to be administered on Day 13 under fed conditions was 1 of the 4 MR formulations administered on Days 1, 4, 7, and 10 under fasted conditions. The formulation chosen for administration on Day 13 was the 200 mg 8-hour MR formulation as determined by the Sponsor based on the available safety, tolerability, and PK results of the 4 MR formulations.
AEs were recorded from (first) admission until completion of the follow-up visit. Any clinically significant observations in results of clinical laboratory, 12-lead ECGs, vital signs, or physical examinations were recorded as AEs.
A treatment-emergent AE (TEAE) was defined as any event not present prior to (the first) administration of the study drug or any event already present that worsened in either severity or frequency following exposure to the study drug.
At several time points before and after drug administration, subjects were asked nonleading questions to determine the occurrence of AEs. Subjects were asked in general terms about any AEs at regular intervals during the study. In addition, all AEs reported spontaneously during the course of the study were recorded. Details included description of the event, date and time of onset, date and time of end, total duration, severity, relationship to study drug, intervention, seriousness, and outcome. All answers were interpreted by the Investigator and were recorded in the eCRF. All AEs were classified according to the Medical Dictionary for Regulatory Activities (MedDRA; Version 22.0) for AEs.
The severity of the AEs was rated as mild, moderate, or severe; the relationship between the AEs and the study drug was indicated as none, unlikely, possibly, likely, or definitely. Adverse events assessed as possibly, likely, or definitely were considered related to the study drug; AEs assessed as none or unlikely were considered not related to the study drug.
The following parameters were measured: • Clinical chemistry (serum quantitatively): total bilirubin, alkaline phosphatase, gamma glutamyl transferase, aspartate aminotransferase (AST), alanine aminotransferase (ALT), lactate dehydrogenase, creatinine, urea, total protein, glucose, inorganic phosphate, sodium, potassium, • calcium, and chloride • Hematology (blood quantitatively): leukocytes, erythrocytes, hemoglobin, hematocrit, thrombocytes, partial automated differentiation (lymphocytes, monocytes, eosinophils, basophils, and neutrophils), mean corpuscular volume, mean corpuscular hemoglobin, and mean corpuscular hemoglobin concentration • Coagulation (blood quantitatively): prothrombin time (reported in seconds and as international normalized ratio), activated partial thromboplastin time, and fibrinogen • Urinalysis (urine qualitatively): hemoglobin, urobilinogen, ketones, glucose, and protein • Serology: HBsAg, anti-HCV, and anti-HIV 1 and 2 • Drug and alcohol screen: opiates, methadone, cocaine, amphetamines (including ecstasy), cannabinoids, barbiturates, benzodiazepines, tricyclic antidepressants, and alcohol • Pregnancy test (females only): (3-human chorionic gonadotropin in serum

[1] = FIH study, all parts combined: plasma PK; assay type: in vivo, human; conditions: all blood samples of subjects that received IMB-1018972
Description: The study started with the SAD part.

[2] = 50 mg 4-hour MR formulation of IMB-1018972, fasted
[3] = 200 mg 4-hour MR formulation of IMB-1018972, fasted
[4] = single doses of 50 mg or 200 mg MR IMB-1018972 (N=12)
[5] = single-dose MR part, IMB-1018972 (N=12)
[6] = single-dose MR part, of 37 TEAEs

## COc1ccc(CN2CCN(CCOC(=O)c3cccnc3)CC2)c(OC)c1OC [IMB-1018972, 2-[4-[(2,3,4-trimethoxyphenyl)methyl]piperazin-1-yl]ethyl pyridine-3-carboxylate]
Healthy subjects; [2]
  Number of TEAEs: 9
  Subjects reporting TEAEs: 50%
Healthy subjects; 50 mg and 200 mg MR formulations (4-hour, 8-hour) fasted, 200 mg 8-hour MR fed, except 1 subject with elevated ALT
  Tolerability: well tolerated
Healthy subjects; [3]
  Number of TEAEs: 11
  Subjects reporting TEAEs: 66.7%
Healthy subjects; Day 2, MR doses on Days 1, 4, 7, 10
  ALT, Subject 505: 31 IU/L
Healthy subjects; Day 5
  ALT, Subject 505: 72 IU/L
Healthy subjects; Day 8
  ALT, Subject 505: 97 IU/L
Healthy subjects; Day 11 (highest)
  ALT, Subject 505: 149 IU/L
Healthy subjects; Day 14
  ALT, Subject 505: 102 IU/L
Healthy subjects; Day 16
  ALT, Subject 505: 84 IU/L
Healthy subjects; follow-up Day 24
  ALT, Subject 505: 42 IU/L
Healthy subjects; [4]
  Number of drug-related TEAEs (events) of pollakiuria (renal and urinary disorders): 5
  Subjects reporting pollakiuria: 16.7%
Healthy subjects; single-dose MR part
  Dose or dissolution time dependency of number and incidence of TEAEs: no apparent dose or dissolution time dependency
  Moderate TEAE of ALT increased (1 subject, withdrawn): relationship to the study drug (Investigator): possibly related
  Number of drug-related TEAEs of ALT increased: 1
  Number of drug-related TEAEs of headache: 1
  Severe TEAEs: No severe TEAEs
  TEAEs of flushing: No TEAEs of flushing
Healthy subjects; single-dose MR part (N=12)
  Number of TEAEs considered not related to the study drug: 30
  Number of TEAEs considered related to the study drug: 7
  Number of TEAEs, SOC gastrointestinal disorders: 5
  Number of TEAEs, SOC general disorders and administration site conditions: 11
  Number of TEAEs, SOC nervous system disorders: 8
  Subjects reporting TEAEs considered not related to the study drug: 83.3%
  Subjects reporting TEAEs considered related to the study drug: 33.3%
  Subjects reporting TEAEs, SOC gastrointestinal disorders: 33.3%
  Subjects reporting TEAEs, SOC general disorders and administration site conditions: 58.3%
  Subjects reporting TEAEs, SOC nervous system disorders: 58.3%
Healthy subjects; single-dose MR part, 200 mg 8-hour MR
  Difference between fasted and fed administration for number and incidence of TEAEs: no clear difference
Healthy subjects; [5]
  Number of TEAEs: 37
  Subjects reporting TEAEs: 83.3%
Healthy subjects; [6]
  Number of TEAEs of mild severity: Thirty-six
  Number of TEAEs of moderate severity: 1
Healthy subjects; throughout the entire period
  AST levels, Subject 505: within normal range
[1]
  IMB-1018972 in plasma: could be measured in only few plasma samples
